The values below are quoted from earlier work in patent publication US12661368B2, “Maribavir isomers, compositions, methods of making and methods of using” (Takeda Pharmaceutical Company Limited, priority 2010, dated 2026).

Data set [1] concerns cytomegalovirus (CMV). The conditions noted are these: Phase 2, 200 Study.
Data set [2] relates to cytomegalovirus (CMV). The settings on record: Phase 3, 300 Study, allogeneic SCT patients, prophylaxis.

`CC(C)Nc1nc2cc(Cl)c(Cl)cc2n1[C@H]1O[C@@H](CO)[C@H](O)[C@@H]1O` [maribavir, 5,6-dichloro-2-(isopropylamino)-1-(β-L-ribofuranosyl)-1H-benzimidazole]: the tolerability profile entry in the data set with cytomegalovirus (CMV) [1] (administration for up to 12 weeks, SCT patients) is recorded as “favorable tolerability profile”. Besides, the “rate of reactivation of CMV in recipients of allogeneic stem cell (bone marrow) transplants” value in the data set with cytomegalovirus (CMV) [1] (prophylaxis, fasted dosing protocol, preliminary results) is “significant reduction”. Also, the “key secondary endpoints of the study” value in the data set with cytomegalovirus (CMV) [2] is listed as “failed to meet its key secondary endpoints”. Also, the “reducing the rate of CMV disease, maribavir versus placebo (primary analysis)” value in the data set on cytomegalovirus (CMV) [2] (dosing fasted or fed) is reported as “no statistically significant difference”.
